For experiment [1], the target named is T1, Eukaryotic translation initiation factor 4E (Oryctolagus cuniculus, UniProt P29338). As to the kind of experiment: Inhibition of eukaryotic initiation factor 4E in micrococcal nuclease-pretreated rabbit reticulocyte lysate assessed as inhibition of m7,3'-O-GpppG-capped 5'UTRbetaglob-LUC mRNA translation by luciferase-based luminometry.
The target in experiment [2] is T1, Eukaryotic translation initiation factor 4E. Kind of experiment: Inhibition of eukaryotic initiation factor 4E in micrococcal nuclease-pretreated rabbit reticulocyte lysate assessed as inhibition of m7,3'-O-GpppG-capped 5'UTRbetaglob-LUC mRNA translation treated 60 mins before mRNA addition by luciferase-based luminometry.

Each structure is given as a SMILES string.

T1 sequence (P29338 whole entry): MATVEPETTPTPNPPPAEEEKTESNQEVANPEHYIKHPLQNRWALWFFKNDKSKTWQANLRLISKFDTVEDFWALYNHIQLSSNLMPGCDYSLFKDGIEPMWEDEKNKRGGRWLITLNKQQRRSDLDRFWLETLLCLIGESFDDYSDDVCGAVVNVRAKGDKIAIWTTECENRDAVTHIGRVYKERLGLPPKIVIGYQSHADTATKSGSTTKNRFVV

As a reminder, the IC50 is the midpoint of a concentration-inhibition curve. On to `C[n+]1cn(C2OC(COP(=O)(S)OP(=O)(O)OP(=O)(O)O)C(O)C2O)c2nc(N)[n-]c(=O)c21` [2-amino-9-[(2R,3R,4S,5R)-3,4-dihydroxy-5-{[({[(phosphonatooxy)phosphinato]oxy}(sulfanidyl)phosphoryl)oxy]methyl}oxolan-2-yl]-7-methyl-6-oxido-9H-purin-7-ium], for which the IC50 is 1440 nM in experiment [1] and 1300 nM in experiment [2].
